Measurements taken from paper PMC5021374, “An Arginine Finger Regulates the Sequential Action of Asymmetrical Hexameric ATPase in the Double-Stranded DNA Translocation Motor” (Molecular and Cellular Biology, 2016).

Assays:
[1] = target: T1, gp16 ATPase (ϕ29 motor ATPase gp16) (Bacillus phage phi29, UniProt P11014); assay: intrinsic tryptophan fluorescence (SUMO-gp16); also trypsin probing (His-gp16); type: binding; conditions: 2 mM Tris pH 8.0, 0.005% Tween 20, 1.5% PEG 8000, 0.5% acetone; excitation 280 nm
T1 construct: gene 16; full-length gp16 with tags: SUMO-gp16 (Trp fluorescence), His-gp16 (trypsin probing), eGFP-gp16 (EMSA; N-terminal eGFP); homohexamer, monomer/dimer mixture in solution
T1 sequence (P11014 1-332): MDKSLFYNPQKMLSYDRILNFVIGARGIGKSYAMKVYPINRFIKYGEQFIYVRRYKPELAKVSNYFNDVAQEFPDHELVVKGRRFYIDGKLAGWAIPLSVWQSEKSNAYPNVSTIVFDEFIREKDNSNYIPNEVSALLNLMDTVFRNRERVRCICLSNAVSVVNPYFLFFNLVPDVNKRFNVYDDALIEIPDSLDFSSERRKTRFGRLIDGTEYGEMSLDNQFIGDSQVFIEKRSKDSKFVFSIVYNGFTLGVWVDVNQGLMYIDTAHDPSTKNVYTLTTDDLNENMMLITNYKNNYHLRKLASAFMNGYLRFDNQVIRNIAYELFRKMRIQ

[2] = target: T1, gp16 ATPase (ϕ29 motor ATPase gp16); assay: fluorescent phosphate binding protein assay of ATP hydrolysis; type: biochemical; conditions: DNA-dependent ATPase; tag in this assay not stated
[3] = target: T1, gp16 ATPase (ϕ29 motor ATPase gp16); assay: EMSA with 33-bp Cy5-dsDNA (nucleotide-dependent DNA binding; indirect); conditions: nonhydrolysable ATP analog; 33-bp Cy5-dsDNA present; ambient temperature, 20 min

| SMILES | intrinsic tryptophan fluorescence (SUMO-gp16); also trypsin probing (His-gp16) [1] | fluorescent phosphate binding protein assay of ATP hydrolysis [2] | EMSA with 33-bp Cy5-dsDNA (nucleotide-dependent DNA binding; indirect) [3] |
| --- | --- | --- | --- |
| Nc1ncnc2c1ncn2[C@@H]1O[C@H](COP(=O)(O)OP(=O)(O)OP(=O)(O)O)[C@@H](O)[C@H]1O [ATP] | both assays indicated a conformational change in the gp16-ATP complex | a phosphate binding protein conjugated to a fluorescent probe ... was used to assay ATP hydrolysis | – |
| Nc1ncnc2c1ncn2[C@@H]1O[C@H](COP(=O)(O)OP(=O)(O)OP(O)(O)=S)[C@@H](O)[C@H]1O [γ-S-ATP] | – | – | Stronger binding of gp16 to dsDNA was observed when gp16 was incubated with γ-S-ATP |
